According to PubChem BioAssay (NCI):
“And” between values parts separate entries of the source, which are not always exact repeats. Identical values can stand only once.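 These data come from cells grown in 96-well plates and exposed to compound for 48 hours at five concentrations. At the GI50, growth is halved. At the TGI there is no net growth.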

Experiments:
Experiment in all cases: NCI anticancer screen, dose series, 48 h
SN12C renal = test system: SN12C renal
IGROV1 ovarian = test system: IGROV1 ovarian
SK-MEL-5 melanoma = test system: SK-MEL-5 melanoma
EKVX NSCLC = test system: EKVX NSCLC
A549 NSCLC = test system: A549 NSCLC
HCC-2998 colon = test system: HCC-2998 colon
DU-145 prostate = test system: DU-145 prostate
SNB-19 CNS = test system: SNB-19 CNS
SF-539 CNS = test system: SF-539 CNS
BT-549 breast = test system: BT-549 breast

SMILES	GI50 (SN12C renal)	TGI (SN12C renal)	GI50 (IGROV1 ovarian)	TGI (IGROV1 ovarian)	GI50 (SK-MEL-5 melanoma)	TGI (SK-MEL-5 melanoma)	GI50 (EKVX NSCLC)	TGI (EKVX NSCLC)	GI50 (A549 NSCLC)	TGI (A549 NSCLC)	GI50 (HCC-2998 colon)	TGI (HCC-2998 colon)	GI50 (DU-145 prostate)	TGI (DU-145 prostate)	GI50 (SNB-19 CNS)	TGI (SNB-19 CNS)	GI50 (SF-539 CNS)	TGI (SF-539 CNS)	GI50 (BT-549 breast)	TGI (BT-549 breast)
Cc1ccc(C(=O)Nc2ccc(CN3CCN(C)CC3)c(C(F)(F)F)c2)cc1C#Cc1cncc2ncccc12	0.24 µM	11.1 µM	0.0879 µM	0.755 µM	2.63 µM	8.14 µM	1.12 µM	16.7 µM	0.473 µM	5.24 µM	2.47 µM	22.2 µM	0.388 µM	1.53 µM	1.29 µM	2.62 µM	0.42 µM	1.55 µM	2.33 µM	12.6 µM
Clc1ccccc1-c1nc2ccccc2[nH]1	> 100 µM	> 100 µM	91.7 µM	> 100 µM	> 100 µM	> 100 µM	> 100 µM	> 100 µM	> 100 µM	> 100 µM	> 100 µM	> 100 µM	> 100 µM	> 100 µM	> 100 µM	> 100 µM	> 100 µM	> 100 µM	> 100 µM	> 100 µM
COc1cc(C(=O)/C=C/c2c(-c3ccc(F)cc3)nc3sccn23)cc(OC)c1OC	2 µM	15.8 µM	3.49 µM	–	1.28 µM	2.81 µM	3.03 µM	> 100 µM	2.54 µM	> 21.1 µM	2.03 µM	3.99 µM	2.52 µM	6.64 µM	3.37 µM	27.8 µM	1.59 µM	3.62 µM	0.342 µM	12.5 µM
O=C(Cc1ccc(/C=C/C(=O)c2ncc[nH]2)cc1)Nc1ccc(Br)cc1	2.59 µM	6.93 µM	2.37 µM	7.22 µM	5.77 µM	> 16.7 µM	4.58 µM	> 16.7 µM	6.06 µM	> 16.7 µM	2.46 µM	4.96 µM	1.1 µM	4.89 µM	2.54 µM	7.99 µM	1.47 µM	3.56 µM	1.55 µM	4.04 µM
BrP(NC1CCCCCC1)(c1ccccc1)(c1ccccc1)c1ccccc1	–	16.1 µM	–	21.7 µM	–	3.18 µM	–	35.4 µM	–	25.8 µM	–	6.49 µM	–	29.9 µM	–	16.8 µM	–	34.4 µM	–	9.57 µM
COc1ccc(C(=O)Nc2ncc(Cc3ccc(F)cc3)s2)cc1	0.0988 µM	> 100 µM	0.0957 µM	97.7 µM	0.0422 µM	2.26 µM	0.383 µM	> 100 µM	0.0678 µM	> 100 µM	0.163 µM	2.49 µM	0.138 µM	> 100 µM	0.0963 µM	> 100 µM	0.0448 µM	0.414 µM	0.642 µM	> 100 µM
COC(=O)C1CC2(c3ccc(C)cc3)C(c3ccc(C)cc3)=C(c3ccc(C)cc3)C1(c1ccc(C)cc1)S2=O (stereo not drawn)	> 100 µM	> 100 µM	98.4 µM	> 100 µM	> 100 µM	> 100 µM	> 100 µM	> 100 µM	> 100 µM	> 100 µM	> 100 µM	> 100 µM	> 100 µM	> 100 µM	36.2 µM	> 100 µM	> 100 µM	> 100 µM	> 100 µM	> 100 µM
Cn1cc(-c2csc(-c3cn(CCN4CCOCC4)c4ccc(F)cc34)n2)c2cccnc21	3.15 µM	> 100 µM	2.91 µM	14.1 µM	1.85 µM	3.56 µM	2.52 µM	26.6 µM	3.18 µM	17.5 µM	3.42 µM	16.4 µM	3.12 µM	> 100 µM	3.93 µM	> 100 µM	3.16 µM	16.2 µM	2.18 µM	6.21 µM
NC(=O)Nc1ccc2ncnc(Nc3ccc(Cl)cc3)c2c1	11.4 µM	> 70.7 µM	9.06 µM	34.3 µM	13.6 µM	30.8 µM	0.369 µM	11.9 µM	18.4 µM	> 100 µM	33.5 µM	> 100 µM	4.21 µM	> 100 µM	14.1 µM	> 100 µM	30.7 µM	> 100 µM	18.9 µM	67.4 µM
CC1OC(OC2C(OC3C[C@@]4(C)C(C[C@H](O)[C@H]5[C@H](C6(C)CCC(C(C)(C)O)O6)CCC54C)[C@]4(C)CC[C@@H](O)C(C)(C)C34)OC(CO)C(O)C2O)C(O)C(O)C1O (stereo partly drawn) (tested in a mixture with another compound)	–	> 100 µM	–	> 100 µM	–	> 100 µM	–	> 100 µM	–	> 100 µM	–	> 100 µM	–	> 100 µM	–	> 100 µM	–	> 100 µM	–	> 100 µM
O=C(c1ccc(O)cc1)c1ccc(C(=O)c2ccc(O)cc2)cc1	> 100 µM	> 100 µM	6.32 µM	> 100 µM	> 100 µM	> 100 µM	8.33 µM	> 100 µM	> 100 µM	> 100 µM	> 100 µM	> 100 µM	> 100 µM	> 100 µM	71.1 µM	> 100 µM	80 µM	> 100 µM	94 µM	> 100 µM
c1ccc(Cn2cc3c(c2)-c2oncc2CC3)cc1	2.26 µM	> 100 µM	1.27 µM	> 100 µM	0.348 µM	11.8 µM	2.74 µM	> 100 µM	1.48 µM	97.7 µM	1.25 µM	4.76 µM	0.977 µM	12.8 µM	1.27 µM	> 100 µM	0.461 µM	2.9 µM	4.31 µM	98.2 µM
O=C(Cc1ccccc1)Nc1nnc(CCSCCc2nnc(NC(=O)Cc3ccccc3)s2)s1	5.34 µM	44.7 µM	25.9 µM	> 100 µM	58 µM	> 100 µM	> 100 µM	> 100 µM	0.541 µM	> 100 µM	89.8 µM	> 100 µM	23.8 µM	> 100 µM	11.2 µM	33.3 µM	22.8 µM	> 100 µM	5.18 µM	74.8 µM
CC(C)[C@@H](C(=O)O[C@@H]1/C=C/C(=O)O[C@@H](C)CCC/C=C/[C@@H]2C[C@H](O)C[C@H]21)[N+](C)(C)C	> 100 µM	> 100 µM	> 100 µM	> 100 µM	> 100 µM	> 100 µM	> 100 µM	> 100 µM	> 100 µM	> 100 µM	> 100 µM	> 100 µM	> 100 µM	> 100 µM	> 100 µM	> 100 µM	> 100 µM	> 100 µM	> 100 µM	> 100 µM
Nc1c(C(=O)Nc2cccc3ccccc23)sc2nc3c(cc12)CCCC3	6 µM	> 100 µM	2.34 µM	> 100 µM	0.459 µM	10.7 µM	4.47 µM	> 100 µM	3.33 µM	> 100 µM	4.17 µM	> 100 µM	2.62 µM	> 100 µM	4.12 µM	> 100 µM	1.45 µM	> 100 µM	1.4 µM	17.2 µM
Cn1c2ccccc2c2cc(-c3ccccc3)c3c(c21)C(=O)C=CC3=O	–	47.2 µM	–	64.9 µM	–	> 62.7 µM	–	> 100 µM	–	> 100 µM	–	> 88.9 µM	–	> 100 µM	–	> 100 µM	–	58.3 µM	–	26.5 µM
OC(COc1ccc(Cl)cc1Cl)CN1CCCC1 (stereo not drawn)	–	> 100 µM	–	> 100 µM	–	> 100 µM	–	> 100 µM	–	> 100 µM	–	> 100 µM	–	> 100 µM	–	> 100 µM	–	> 100 µM	–	> 100 µM
CCN(CC)c1ccc(/C=C/C(=O)c2cccc(NS(C)(=O)=O)c2)cc1	6.69 µM	> 100 µM	> 100 µM	> 100 µM	4.21 µM	> 100 µM	5.46 µM	> 100 µM	> 100 µM	> 100 µM	> 100 µM	> 100 µM	7.2 µM	> 100 µM	86 µM	> 100 µM	4.94 µM	> 100 µM	4.67 µM	> 100 µM
Cc1cc[c-]cc1.Fc1c[c-]c(-c2ccccn2)c(F)c1.N#CCC[PH+](CCC#N)c1ccccc1.[Pt+2]	3.17 µM	36.1 µM	2.89 µM	21.9 µM	2.24 µM	5.36 µM	3.09 µM	22.3 µM	3.57 µM	71.8 µM	3.22 µM	10.5 µM	2.46 µM	6.22 µM	4.91 µM	> 100 µM	2.92 µM	10.3 µM	3.22 µM	31.6 µM
NC1=CC(=O)C(=O)c2cccnc21	3.11 µM	13.4 µM	7.91 µM	23.1 µM	1.51 µM	2.84 µM	12.5 µM	26.1 µM	3.55 µM	15.5 µM	14.7 µM	28.4 µM	4.94 µM	16.3 µM	5.86 µM	21.6 µM	7.59 µM	20.3 µM	4.73 µM	18.7 µM
O=C1OCC2=C1C(c1cccc(F)c1)c1cc3c(cc1N2CCO)OCCO3 (stereo not drawn)	0.345 µM	> 50 µM	0.333 µM	> 50 µM	0.162 µM	–	0.306 µM	> 50 µM	0.32 µM	> 50 µM	0.768 µM	> 50 µM	0.22 µM	> 50 µM	0.275 µM	> 50 µM	0.141 µM	0.831 µM	0.417 µM	11.4 µM
N/C(=N\OC(=O)NC(Cl)=C(Cl)Cl)c1cc(C(F)(F)F)cc(C(F)(F)F)c1	–	60.8 µM	–	66 µM	–	89.6 µM	–	27 µM	–	30.4 µM	–	25.8 µM	–	27 µM	–	50.5 µM	–	29.9 µM	–	41.2 µM
O=C1CC(c2ccccc2)Cc2nc3ccc(Cl)cc3cc21 (stereo not drawn)	0.518 µM	> 84.9 µM	0.397 µM	> 100 µM	0.309 µM	2.37 µM	0.732 µM	> 100 µM	0.451 µM	> 100 µM	2.39 µM	20.2 µM	0.217 µM	> 100 µM	0.462 µM	> 100 µM	0.211 µM	0.642 µM	0.503 µM	11.3 µM
CN(C)CCCNC(=O)c1cc2c3ccccc3[nH]c2c2ncccc12	15.6 µM	> 100 µM	10.9 µM	70.9 µM	13.5 µM	26.6 µM	15.3 µM	85.4 µM	14.1 µM	> 100 µM	10.8 µM	23.4 µM	19.7 µM	> 100 µM	17.4 µM	85.3 µM	10.8 µM	23.4 µM	9.33 µM	25.1 µM
O=C1C[C@@H](c2ccccc2)NCCCCN(O)CCCN1	–	> 100 µM	–	> 100 µM	–	> 100 µM	–	> 100 µM	–	> 100 µM	–	> 100 µM	–	> 100 µM	–	> 100 µM	–	> 100 µM	–	> 100 µM
CC1=C[C@H]2c3c(c(O)c(O)c4oc5cc(O)cc(O)c5c(=O)c34)[C@H](c3cc(O)c(O)c4oc5cc(O)cc(O)c5c(=O)c34)[C@H]2C(C)(C)C1	1.84 µM and 2.11 µM	6.88 µM and 8.24 µM	1.36 µM and 2.05 µM	5.26 µM and 17 µM	1.53 µM and 1.43 µM	2.89 µM and 2.84 µM	2.67 µM and 2.2 µM	13.7 µM and 8.53 µM	0.686 µM and 1.67 µM	6.17 µM and 24.9 µM	1.91 µM and 2.5 µM	3.78 µM and 10 µM	2.48 µM and 2.08 µM	11.4 µM and 12.8 µM	1.33 µM and 1.3 µM	3.31 µM and 4.93 µM	1.16 µM and 1.69 µM	3.89 µM and 4.79 µM	0.664 µM and 1.87 µM	8.48 µM and 6.24 µM
